Data published in patent US9939451B2, “Biomarker for detecting white matter stroke, containing toll-like receptor 2, and medical use of toll-like receptor 2” (AJOU UNIVERSITY INDUSTRY—ACADEMIC COOPERATION FOUNDATION, priority 2013, dated 2018).

Columns and labels:
[1] = tested on: primary OL (oligodendrocyte) cultures exposed to oxygen-glucose deprivation; assay: LDH assay of OGD-induced OL death; format: cell-based, mouse
Protocol: Primary OL cultures were prepared from cortices of newborn C57BL/6 on postnatal day 0 (P0) to postnatal day 1 (P1), and/or TLR2 (−/−) mouse, according to the method reported in Journal of Visualized Experiment by O'Meara R. After 9-10 days in vitro, confluent mixed glial cultures were obtained. The mixed glial cultures were shaken at a temperature of about 37° C. for about 1 hour at a speed of about 200 rpm, so as to remove microglia. Afterwards, a second cycle of shaking was then performed at a temperature of about 37° C. for about 18 hours at a speed of about 250 rpm, so as to remove OLs from astrocyte monolayer. The cell suspensions obtained therefrom was plated on a bacterial grade Petri dish for about 1 hour to separate OLs from remaining microglia and astrocytes. […]
For quantification of OGD-induced OL death, LDH assay was performed using an assay kit (Takara Bio, Inc., Madison, Wis.) to measure LDH generated in a bathing medium in association with damaged OL at 24 hours after the onset of OGD challenge. The LDH level corresponding to typical cell death was determined in sister cultures exposed 1.5% Triton X-100 for 24 hours (complete cell death, CD). Baseline (BL) LDH levels were determined in a condition of only medium without OLs. Percentage of cell death in each experimental condition was calculated using a following formula. {% of OL death=(experimental value−BL)×100/(CD−BL)}

[2] = tested on: primary OL (oligodendrocyte) cultures exposed to oxygen-glucose deprivation; assay: TUNEL staining of OGD-induced OL death; format: cell-based, mouse; settings: Pam3CSK4 1 μg/ml added after 2 hours OGD; FIG. 5
Protocol: Primary OL cultures were prepared from cortices of newborn C57BL/6 on postnatal day 0 (P0) to postnatal day 1 (P1), and/or TLR2 (−/−) mouse, according to the method reported in Journal of Visualized Experiment by O'Meara R. After 9-10 days in vitro, confluent mixed glial cultures were obtained. The mixed glial cultures were shaken at a temperature of about 37° C. for about 1 hour at a speed of about 200 rpm, so as to remove microglia. Afterwards, a second cycle of shaking was then performed at a temperature of about 37° C. for about 18 hours at a speed of about 250 rpm, so as to remove OLs from astrocyte monolayer. The cell suspensions obtained therefrom was plated on a bacterial grade Petri dish for about 1 hour to separate OLs from remaining microglia and astrocytes. Purified OLs were plated on a poly-D-lysine coated 12 well (1.5×10^5 cells/well) or 96 well (1.5×10^4 cells/well) or on a 9 mm coverslip (1.0×10^4 cells/coverslip).
For OGD challenge, the purified OLs were cultured for about 1 day in a serum-free differentiation medium, washed with PBS three times, and then, transferred to an anaerobic chamber (Forma Scientific, Marietta, Ohio). […] The cells were exposed to OGD for about 2 hours, and then, transferred to a normoxic chamber. […]

With Pam3CSK4 the “OGD-induced OL death (LDH release)” value ([1]; Pam3CSK4 1 μg/ml added after 2 hours OGD, LDH measured 24 hours after onset of OGD, FIG. 3) was “reduced the extent of OGD-induced OL death”, the “OGD-induced OL death (summary statement)” value ([1]; TLR2 agonist applied after OGD to OLs cultured from WT mouse, readout not given) was “substantially reduced OGD-induced OL death” and the “OGD-induced OL death (TUNEL staining)” value [2] was “reduced the extent of OGD-induced OL death”.
